# Assay results taken from article PMC2719774 (European journal of pharmaceutics and biopharmaceutics : …, 2009).
# Where “and” joins values, the source holds several entries; their conditions need not be identical. Equal values may be shown once.
# Legend:
# in vitro = details: dog, MDCK-MDR1
# CYP2E1 = CYP2E1 (Homo sapiens, UniProt P05181); assay: In vitro metabolism screening with recombinant CYP2E1; assay type: in vitro ADME; details: 1 h, 37°C
# [1] = humans ref 13; cited from earlier work
# CYP1A1 = biological target: T1, CYP1A1 (Homo sapiens, UniProt P04798); assay: In vitro metabolism screening with recombinant CYP1A1; assay type: in vitro ADME; details: 1 h, 37°C
# T1 sequence (P04798 1-512): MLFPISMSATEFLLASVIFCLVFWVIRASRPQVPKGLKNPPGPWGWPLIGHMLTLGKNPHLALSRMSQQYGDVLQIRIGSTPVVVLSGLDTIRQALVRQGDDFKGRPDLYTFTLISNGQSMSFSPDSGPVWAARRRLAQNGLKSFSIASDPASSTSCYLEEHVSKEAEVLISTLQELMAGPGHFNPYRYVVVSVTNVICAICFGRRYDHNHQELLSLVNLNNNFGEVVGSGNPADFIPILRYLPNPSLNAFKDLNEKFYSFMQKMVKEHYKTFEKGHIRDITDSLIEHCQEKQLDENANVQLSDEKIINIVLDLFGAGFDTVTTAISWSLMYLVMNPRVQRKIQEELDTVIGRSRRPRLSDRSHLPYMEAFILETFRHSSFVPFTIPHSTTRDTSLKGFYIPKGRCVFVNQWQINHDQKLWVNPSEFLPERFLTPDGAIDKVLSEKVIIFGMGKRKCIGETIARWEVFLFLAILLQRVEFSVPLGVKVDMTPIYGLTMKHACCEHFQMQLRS
# CYP2D6 = CYP2D6 (Homo sapiens, UniProt P10635); assay: In vitro metabolism screening with recombinant CYP2D6; assay type: in vitro ADME; details: 1 h, 37°C
# Chain of CYP2D6 (P10635 whole entry): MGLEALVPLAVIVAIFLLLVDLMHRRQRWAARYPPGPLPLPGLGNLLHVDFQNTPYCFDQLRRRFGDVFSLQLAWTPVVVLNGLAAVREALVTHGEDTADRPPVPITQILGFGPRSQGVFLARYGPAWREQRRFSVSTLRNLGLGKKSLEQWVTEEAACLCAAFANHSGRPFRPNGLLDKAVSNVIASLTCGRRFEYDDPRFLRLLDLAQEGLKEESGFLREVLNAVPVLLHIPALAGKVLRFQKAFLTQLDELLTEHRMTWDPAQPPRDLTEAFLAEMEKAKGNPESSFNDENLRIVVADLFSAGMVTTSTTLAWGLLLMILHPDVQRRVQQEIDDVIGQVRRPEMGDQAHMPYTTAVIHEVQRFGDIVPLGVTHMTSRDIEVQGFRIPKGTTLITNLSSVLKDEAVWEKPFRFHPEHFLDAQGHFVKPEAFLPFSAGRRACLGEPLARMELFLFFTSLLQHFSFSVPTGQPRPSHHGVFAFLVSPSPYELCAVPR
# [2] = system: MDCK-MDR1 cell monolayers; details: 5 μM, 37°C, PBS; UV-HPLC limit of detection 100 ng/ml
# P-gp (MDR1) = assay: in vitro; details: dog, MDCK-MDR1
# recombinant human P-gp = recombinant human P-gp (Homo sapiens, UniProt P08183); assay: P-gp ATPase activity; details: for Fold Stimulation of P-gp ATPase activity: relative to non treated
# Chain of recombinant human P-gp (P08183 whole entry): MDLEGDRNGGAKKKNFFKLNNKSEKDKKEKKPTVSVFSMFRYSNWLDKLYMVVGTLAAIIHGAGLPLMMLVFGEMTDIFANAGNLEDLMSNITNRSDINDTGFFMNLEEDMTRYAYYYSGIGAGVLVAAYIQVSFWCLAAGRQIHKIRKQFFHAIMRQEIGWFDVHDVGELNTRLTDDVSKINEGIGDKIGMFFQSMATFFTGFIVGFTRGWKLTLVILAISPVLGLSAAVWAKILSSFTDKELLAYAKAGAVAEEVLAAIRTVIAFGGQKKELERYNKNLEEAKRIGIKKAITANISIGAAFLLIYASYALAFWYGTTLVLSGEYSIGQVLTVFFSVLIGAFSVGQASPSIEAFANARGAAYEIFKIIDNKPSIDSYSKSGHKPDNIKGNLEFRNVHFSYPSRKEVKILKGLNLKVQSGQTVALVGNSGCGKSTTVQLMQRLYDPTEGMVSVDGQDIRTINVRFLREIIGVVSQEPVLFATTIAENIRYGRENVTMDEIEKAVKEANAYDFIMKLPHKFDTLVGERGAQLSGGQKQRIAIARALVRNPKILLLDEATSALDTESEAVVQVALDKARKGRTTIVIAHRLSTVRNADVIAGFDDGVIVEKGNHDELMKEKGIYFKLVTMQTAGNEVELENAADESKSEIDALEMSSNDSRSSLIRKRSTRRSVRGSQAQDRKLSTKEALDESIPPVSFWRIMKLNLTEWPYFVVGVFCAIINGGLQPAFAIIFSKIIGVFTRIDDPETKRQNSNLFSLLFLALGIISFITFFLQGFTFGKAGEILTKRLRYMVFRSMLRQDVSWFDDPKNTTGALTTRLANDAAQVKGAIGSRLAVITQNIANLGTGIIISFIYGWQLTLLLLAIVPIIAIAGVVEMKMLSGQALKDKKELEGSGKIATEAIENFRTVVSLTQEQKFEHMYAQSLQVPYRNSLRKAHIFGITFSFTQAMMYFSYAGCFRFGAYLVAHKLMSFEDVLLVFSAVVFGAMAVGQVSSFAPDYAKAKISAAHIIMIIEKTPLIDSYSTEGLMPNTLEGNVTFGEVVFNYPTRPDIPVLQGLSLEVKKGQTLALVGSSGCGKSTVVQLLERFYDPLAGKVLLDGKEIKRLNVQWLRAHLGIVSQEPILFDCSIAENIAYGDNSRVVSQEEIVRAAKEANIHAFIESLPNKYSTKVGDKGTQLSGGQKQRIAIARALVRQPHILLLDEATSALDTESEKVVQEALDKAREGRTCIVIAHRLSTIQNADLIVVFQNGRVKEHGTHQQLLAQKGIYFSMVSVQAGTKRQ
# [3] = rhesus monkeys, plasma, single dose ref 24; cited from earlier work
# [4] = Single-dose pharmacokinetics and brain distribution in rats; assay type: in vivo, male Sprague Dawley rats; details: rat; for t1/2 / half-life: 10 mg/kg i.p.
# [5] = PET imaging, female baboons ref 25; cited from earlier work
# UGT2B7 = biological target: T2, UGT2B7 (Homo sapiens, UniProt P16662); assay: In vitro metabolism screening with UGT2B7 Supersomes; assay type: in vitro ADME; details: 37°C
# T2 sequence (P16662 24-529): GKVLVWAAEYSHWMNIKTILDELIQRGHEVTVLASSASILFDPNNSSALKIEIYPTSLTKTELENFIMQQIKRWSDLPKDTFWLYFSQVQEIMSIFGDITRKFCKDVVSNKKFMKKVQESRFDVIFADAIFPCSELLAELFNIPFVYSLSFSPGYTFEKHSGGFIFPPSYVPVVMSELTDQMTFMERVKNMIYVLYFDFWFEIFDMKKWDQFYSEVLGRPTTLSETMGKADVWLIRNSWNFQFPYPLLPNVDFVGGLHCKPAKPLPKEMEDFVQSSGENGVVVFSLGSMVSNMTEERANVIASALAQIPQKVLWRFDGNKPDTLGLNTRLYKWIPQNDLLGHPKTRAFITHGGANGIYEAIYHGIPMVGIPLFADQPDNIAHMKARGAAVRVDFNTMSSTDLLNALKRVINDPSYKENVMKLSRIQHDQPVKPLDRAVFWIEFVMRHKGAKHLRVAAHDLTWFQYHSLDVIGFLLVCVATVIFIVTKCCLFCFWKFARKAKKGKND
# CYP2C18 = biological target: T3, CYP2C18 (Homo sapiens, UniProt P33260); assay: In vitro metabolism screening with recombinant CYP2C18; assay type: in vitro ADME; details: 1 h, 37°C
# T3 sequence (P33260 26-490): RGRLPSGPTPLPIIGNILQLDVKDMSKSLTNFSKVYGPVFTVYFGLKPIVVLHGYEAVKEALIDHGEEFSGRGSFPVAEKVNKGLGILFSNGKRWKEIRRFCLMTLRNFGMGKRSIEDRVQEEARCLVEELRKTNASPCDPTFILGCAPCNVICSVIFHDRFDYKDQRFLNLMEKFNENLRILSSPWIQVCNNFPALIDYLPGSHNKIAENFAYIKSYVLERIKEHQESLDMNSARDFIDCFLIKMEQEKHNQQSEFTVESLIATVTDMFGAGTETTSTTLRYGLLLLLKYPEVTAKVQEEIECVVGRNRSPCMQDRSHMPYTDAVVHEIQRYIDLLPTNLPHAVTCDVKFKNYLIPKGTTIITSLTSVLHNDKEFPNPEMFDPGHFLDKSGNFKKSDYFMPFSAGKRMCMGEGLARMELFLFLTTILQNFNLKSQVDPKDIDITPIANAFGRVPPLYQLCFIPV
# P-gp = assay: in vitro; details: dog, MDCK-MDR1
# [6] = male, Sprague Dawley, brain, ip, 10 mg/kg
# [7] = male, Sprague Dawley, plasma, ip, 10 mg/kg
# Chain of CYP2E1 (P05181 whole entry): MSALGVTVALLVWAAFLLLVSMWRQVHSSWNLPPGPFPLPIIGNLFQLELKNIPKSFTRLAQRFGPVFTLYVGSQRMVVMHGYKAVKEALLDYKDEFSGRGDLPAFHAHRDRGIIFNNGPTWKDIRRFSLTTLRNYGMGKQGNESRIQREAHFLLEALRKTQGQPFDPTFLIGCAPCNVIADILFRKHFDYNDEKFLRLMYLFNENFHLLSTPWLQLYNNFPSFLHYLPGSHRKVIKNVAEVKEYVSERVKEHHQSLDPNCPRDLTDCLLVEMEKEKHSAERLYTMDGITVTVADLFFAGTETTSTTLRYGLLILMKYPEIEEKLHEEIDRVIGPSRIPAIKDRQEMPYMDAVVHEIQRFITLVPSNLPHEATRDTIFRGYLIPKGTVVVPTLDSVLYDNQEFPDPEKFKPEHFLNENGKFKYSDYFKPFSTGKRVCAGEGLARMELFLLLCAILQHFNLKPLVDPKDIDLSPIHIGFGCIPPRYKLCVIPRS
smiles,measurement,setting,value
"OC[C@@H](O)[C@@H](O)[C@H](O)[C@H](O)CO [Mannitol, mannitol]",Papp,in vitro,3.23 ×10⁻⁶ cm/s
COC(=O)[C@@H]1C[C@H](OC(C)=O)C(=O)[C@H]2[C@@]1(C)CC[C@H]1C(=O)O[C@H](c3ccoc3)C[C@]21C [Salvinorin A],% reduction of initial concentration,CYP2E1; 5 μM,22(±0.80) %
same,% reduction of initial concentration,CYP2E1; 50 μM,6.4(±1.6) %
same,duration of hallucinogenic experience,[1],≤ 15 min
same,time to appearance of hallucinogenic experience,[1],less than 1 min
same,% reduction of initial concentration,CYP1A1; 5 μM,31.1±1.20% and 31.1(±1.20) %
same,% reduction of initial concentration,CYP1A1; 50 μM,5.3(±2) %
same,% reduction of initial concentration,CYP2D6; 5 μM,14.7±0.80% and 14.7(± 0.80) %
same,% reduction of initial concentration,CYP2D6; 50 μM,10(± 1.2) %
same,absorptive transport (Papp A→B),[2],not detected
same,Papp B→A at 5 μM,P-gp (MDR1),40.7 ×10⁻⁶ cm/s
same,rate of ATP consumption (P-gp ATPase activity),recombinant human P-gp; 2.5 μM,50.94 ± 17.87 pmol/μg P-gp/min
same,Fold Stimulation of P-gp ATPase activity,recombinant human P-gp; 2.5 μM,2.39
same,rate of ATP consumption (P-gp ATPase activity),recombinant human P-gp; 5 μM,47.48 ± 3.36 pmol/μg P-gp/min and 47.78 ± 3.36 ^a pmol/μg P-gp/min
same,Fold Stimulation of P-gp ATPase activity,recombinant human P-gp; 5 μM,2.24
same,rate of ATP consumption (P-gp ATPase activity),recombinant human P-gp; 10 μM,41.14 ± 5.86 pmol/μg P-gp/min and 41.14 ± 5.86 ^b pmol/μg P-gp/min
same,Fold Stimulation of P-gp ATPase activity,recombinant human P-gp; 10 μM,1.93
same,rate of ATP consumption (P-gp ATPase activity),recombinant human P-gp; 25 μM,31.08 ± 21.18 pmol/μg P-gp/min
same,Fold Stimulation of P-gp ATPase activity,recombinant human P-gp; 25 μM,1.46
same,elimination half-life,[3],56.6 ± 24.8 min
same,t1/2,[4]; brain,36.1 min
same,Kp,"[4]; male, Sprague Dawley, brain and plasma, ip, 10 mg/kg",0.05
same,AUC(0-inf),[4]; [6],20.6 ng·h/mL
same,AUC(0-t),[4]; [6],13 ng·h/mL
same,Cmax,[4]; [6],23.9 ng/mL
same,Tmax,[4]; [6],10 min
same,half-life,"[4]; male, Sprague Dawley, brain, ip, 10 mg/kg, t1/2, brain",36 min
same,Tmax,"[4]; male, Sprague Dawley, plasma and brain, ip, 10 mg/kg",10 to 15 min
same,AUC(0-inf),[4]; [7],410 ng·h/mL
same,AUC(0-t),[4]; [7],348 ng·h/mL
same,CL/F,[4]; [7],433 mL/min/kg
same,Cmax,[4]; [7],345 ng/mL
same,Tmax,[4]; [7],15 min
same,k el,[4]; [7],0.000153 s⁻¹
same,half-life,"[4]; male, Sprague Dawley, plasma, ip, 10 mg/kg, t1/2, plasma",75 min
same,k el,"[4]; male, Sprague-Dawley, brain, ip, 10 mg/kg",3.19e-05 s⁻¹
same,Vd/F,"[4]; male, Sprague-Dawley, plasma, ip, 10 mg/kg",47.1 L/kg
same,t1/2,[4]; plasma,75.4 min
same,time to peak brain uptake after dosing,[5],40 s
same,% reduction of initial concentration,"UGT2B7; 5 μM, two hour incubation",51(± 4.00) %
same,% reduction of initial concentration,"UGT2B7; 10 μM, 1 h",18.1(± 5.20) %
same,% reduction of initial concentration,"UGT2B7; 50 μM, 1 h",7(±5.60) %
same,% reduction of initial concentration,CYP2C18; 5 μM,20.6(±1.00) %
same,% reduction of initial concentration,CYP2C18; 50 μM,6(±1.2) %
CC(=O)O[C@H]1C(=O)[C@@]2(C)[C@H]([C@H](OC(=O)c3ccccc3)[C@]3(O)C[C@H](OC(=O)[C@H](O)[C@@H](NC(=O)c4ccccc4)c4ccccc4)C(C)=C1C3(C)C)[C@]1(OC(C)=O)CO[C@@H]1C[C@@H]2O [paclitaxel],efflux ratio,P-gp,15.2
